From ChEMBL document CHEMBL1139057, “Rotenoids and flavonoids with anti-invasion of HT1080, anti-proliferation of U937, and differentiation-inducing activity in HL-60 from Erycibe expansa” (Bioorg Med Chem, 2007)
Active and inactive are the calls of the source. No cut-off for these calls is given here.

Tests used:
U-937 [1] = experiment: Antiproliferative activity against human U937 cells after 24 hrs by WST-8 assay; format: functional, cell-based; settings: U-937, 24 h
U-937 [2] = experiment: Antiproliferative activity against human U937 cells after 48 hrs by WST-8 assay; format: functional, cell-based; settings: U-937, 48 h
U-937 [3] = experiment: Antiproliferative activity against human U937 cells after 72 hrs by WST-8 assay; format: functional, cell-based; settings: U-937, 72 h
HT-1080 [4] = experiment: Antiproliferative activity against human HT1080 cells at 10 uM after 24 hrs by calcein-AM assay; format: functional; settings: HT-1080, 24 h
HT-1080 [5] = experiment: Antiproliferative activity against human HT1080 cells at 3 uM after 24 hrs by calcein-AM assay; format: functional; settings: HT-1080, 24 h
HT-1080 [6] = experiment: Antiproliferative activity against human HT1080 cells at 10 uM after 24 hrs by MTT assay; format: functional; settings: HT-1080, 24 h
HT-1080 [7] = experiment: Antiproliferative activity against human HT1080 cells at 30 uM after 72 hrs by MTT assay; format: functional; settings: HT-1080, 72 h
HT-1080 [8] = experiment: Antiproliferative activity against human HT1080 cells at 3 uM after 24 hrs by MTT assay; format: functional; settings: HT-1080, 24 h
HT-1080 [9] = experiment: Inhibition of invasion of human HT1080 cells at 1 uM after 24 hrs; format: functional; settings: HT-1080, 24 h
HT-1080 [10] = experiment: Antiproliferative activity against human HT1080 cells at 10 uM after 72 hrs by calcein-AM assay; format: functional; settings: HT-1080, 72 h
HT-1080 [11] = experiment: Antiproliferative activity against human HT1080 cells at 30 uM after 48 hrs by calcein-AM assay; format: functional; settings: HT-1080, 48 h
HT-1080 [12] = experiment: Antiproliferative activity against human HT1080 cells at 10 uM after 48 hrs by calcein-AM assay; format: functional; settings: HT-1080, 48 h
HT-1080 [13] = experiment: Inhibition of proMMP2 production in human HT1080 cells by gelatin zymography analysis; format: functional, cell-based
HT-1080 [14] = experiment: Antiproliferative activity against human HT1080 cells at 1 uM after 24 hrs by MTT assay; format: functional; settings: HT-1080, 24 h
HT-1080 [15] = experiment: Antiproliferative activity against human HT1080 cells at 30 uM after 24 hrs by calcein-AM assay; format: functional; settings: HT-1080, 24 h
HT-1080 [16] = experiment: Antiproliferative activity against human HT1080 cells at 10 uM after 48 hrs by MTT assay; format: functional; settings: HT-1080, 48 h
HT-1080 [17] = experiment: Antiproliferative activity against human HT1080 cells at 3 uM after 72 hrs by calcein-AM assay; format: functional; settings: HT-1080, 72 h
HT-1080 [18] = experiment: Antiproliferative activity against human HT1080 cells at 3 uM after 48 hrs by calcein-AM assay; format: functional; settings: HT-1080, 48 h
HT-1080 [19] = experiment: Antiproliferative activity against human HT1080 cells at 30 uM after 48 hrs by MTT assay; format: functional; settings: HT-1080, 48 h
HT-1080 [20] = experiment: Inhibition of invasion of human HT1080 cells at 10 uM after 24 hrs; format: functional; settings: HT-1080, 24 h
HT-1080 [21] = experiment: Antiproliferative activity against human HT1080 cells at 30 uM after 72 hrs by calcein-AM assay; format: functional; settings: HT-1080, 72 h
HT-1080 [22] = experiment: Inhibition of invasion of human HT1080 cells at 3 uM after 24 hrs; format: functional; settings: HT-1080, 24 h
HT-1080 [23] = experiment: Antiproliferative activity against human HT1080 cells at 1 uM after 48 hrs by MTT assay; format: functional; settings: HT-1080, 48 h
HT-1080 [24] = experiment: Inhibition of proMMP9 production in human HT1080 cells by gelatin zymography analysis; format: functional, cell-based
HT-1080 [25] = experiment: Antiproliferative activity against human HT1080 cells at 1 uM after 48 hrs by calcein-AM assay; format: functional; settings: HT-1080, 48 h
HT-1080 [26] = experiment: Antiproliferative activity against human HT1080 cells at 30 uM after 24 hrs by MTT assay; format: functional; settings: HT-1080, 24 h
HT-1080 [27] = experiment: Antiproliferative activity against human HT1080 cells at 1 uM after 72 hrs by calcein-AM assay; format: functional; settings: HT-1080, 72 h
HT-1080 [28] = experiment: Antiproliferative activity against human HT1080 cells at 1 uM after 72 hrs by MTT assay; format: functional; settings: HT-1080, 72 h
HT-1080 [29] = experiment: Antiproliferative activity against human HT1080 cells at 3 uM after 72 hrs by MTT assay; format: functional; settings: HT-1080, 72 h
HT-1080 [30] = experiment: Antiproliferative activity against human HT1080 cells at 1 uM after 24 hrs by calcein-AM assay; format: functional; settings: HT-1080, 24 h
HT-1080 [31] = experiment: Inhibition of invasion of human HT1080 cells at 30 uM after 24 hrs; format: functional; settings: HT-1080, 24 h
HT-1080 [32] = experiment: Antiproliferative activity against human HT1080 cells at 10 uM after 72 hrs by MTT assay; format: functional; settings: HT-1080, 72 h
HT-1080 [33] = experiment: Antiproliferative activity against human HT1080 cells at 3 uM after 48 hrs by MTT assay; format: functional; settings: HT-1080, 48 h

## COc1ccc(-c2coc3cc(O)ccc3c2=O)cc1O [CALYCOSIN]
U-937 [1]
  IC50: 49 µM
U-937 [2]
  IC50: 48 µM
U-937 [3]
  IC50: 43 µM

## COc1ccc([C@@H]2CCc3c(OC)cc(OC)cc3O2)c(O)c1 [ERYCEBENIN E]
U-937 [1]
  IC50: 37 µM
U-937 [2]
  IC50: 4.3 µM
U-937 [3]
  IC50: 2.9 µM

## CC1(C)C=Cc2c(cc(O)c3c(=O)c(-c4ccc(O)cc4)coc23)O1 [DERRONE]
U-937 [1]
  IC50: 26 µM
U-937 [2]
  IC50: 20 µM
U-937 [3]
  IC50: 13 µM

## O=c1cc(-c2ccc(O)c(O)c2)oc2cc(O)cc(O)c12 [LUTEOLIN]
U-937 [1]
  IC50: 36 µM
U-937 [2]
  IC50: 28 µM
U-937 [3]
  IC50: 20 µM

## COc1ccc([C@@H]2CCc3c(OC)cc(OC)cc3O2)c(OC)c1 [ERYCIBENIN F]
U-937 [1]
  IC50: > 100 µM
U-937 [2]
  IC50: > 100 µM
U-937 [3]
  IC50: > 100 µM

## C=C(C)[C@H]1Cc2c(ccc3c2O[C@@H]2COc4cc(OC)c(OC)cc4[C@@H]2C3=O)O1 [ROTENONE]
HT-1080 [4]
  inhibition at 10 µM: 23%
HT-1080 [5]
  inhibition at 3 µM: 17.1%
HT-1080 [6]
  inhibition at 10 µM: 9.5%
HT-1080 [7]
  inhibition at 30 µM: 97.8%
HT-1080 [8]
  inhibition at 3 µM: 9.9%
HT-1080 [9]
  inhibition at 1 µM: 0.6%
HT-1080 [10]
  inhibition at 10 µM: 91.4%
HT-1080 [11]
  inhibition at 30 µM: 40.4%
HT-1080 [12]
  inhibition at 10 µM: 51%
HT-1080 [13]
  Activity: Active
HT-1080 [14]
  inhibition at 1 µM: 9.4%
HT-1080 [15]
  inhibition at 30 µM: 26.8%
HT-1080 [16]
  inhibition at 10 µM: 97.3%
HT-1080 [17]
  inhibition at 3 µM: 95.3%
HT-1080 [18]
  inhibition at 3 µM: 44.2%
HT-1080 [19]
  inhibition at 30 µM: 96.9%
U-937 [1]
  IC50: 13 µM
HT-1080 [20]
  inhibition at 10 µM: 53.7%
HT-1080 [21]
  inhibition at 30 µM: 93.4%
U-937 [2]
  IC50: 0.2 µM
U-937 [3]
  IC50: 0.07 µM
HT-1080 [22]
  inhibition at 3 µM: 19.6%
HT-1080 [23]
  inhibition at 1 µM: 95.9%
HT-1080 [24]
  Activity: Active
HT-1080 [25]
  inhibition at 1 µM: 35.2%
HT-1080 [26]
  inhibition at 30 µM: 0.7%
HT-1080 [27]
  inhibition at 1 µM: 97.4%
HT-1080 [28]
  inhibition at 1 µM: 98.6%
HT-1080 [29]
  inhibition at 3 µM: 98.5%
HT-1080 [30]
  inhibition at 1 µM: 16.2%
HT-1080 [31]
  inhibition at 30 µM: 51.6%
HT-1080 [32]
  inhibition at 10 µM: 98.4%
HT-1080 [33]
  inhibition at 3 µM: 97.5%

## C=C(C)[C@H]1Cc2c(ccc3c2O[C@@H]2COc4cc(OC)c(OC)cc4[C@]2(O)C3=O)O1 [ROTENOLONE]
HT-1080 [4]
  inhibition at 10 µM: 24.4%
HT-1080 [5]
  inhibition at 3 µM: 21.8%
HT-1080 [6]
  inhibition at 10 µM: 2.4%
HT-1080 [7]
  inhibition at 30 µM: 98.5%
HT-1080 [8]
  inhibition at 3 µM: 0.8%
HT-1080 [9]
  inhibition at 1 µM: 3.3%
HT-1080 [10]
  inhibition at 10 µM: 94.9%
HT-1080 [11]
  inhibition at 30 µM: 53.6%
HT-1080 [12]
  inhibition at 10 µM: 47.6%
HT-1080 [13]
  Activity: Active
HT-1080 [14]
  inhibition at 1 µM: -2%
HT-1080 [15]
  inhibition at 30 µM: 29.2%
HT-1080 [16]
  inhibition at 10 µM: 96.4%
HT-1080 [17]
  inhibition at 3 µM: 97.1%
HT-1080 [18]
  inhibition at 3 µM: 50.6%
HT-1080 [19]
  inhibition at 30 µM: 96%
U-937 [1]
  IC50: 3.6 µM
HT-1080 [20]
  inhibition at 10 µM: 64.9%
HT-1080 [21]
  inhibition at 30 µM: 95%
U-937 [2]
  IC50: 0.07 µM
U-937 [3]
  IC50: 0.09 µM
HT-1080 [22]
  inhibition at 3 µM: 30.6%
HT-1080 [23]
  inhibition at 1 µM: 95.8%
HT-1080 [24]
  Activity: Active
HT-1080 [25]
  inhibition at 1 µM: 52.2%
HT-1080 [26]
  inhibition at 30 µM: 5.5%
HT-1080 [27]
  inhibition at 1 µM: 97.3%
HT-1080 [28]
  inhibition at 1 µM: 98.3%
HT-1080 [29]
  inhibition at 3 µM: 98.7%
HT-1080 [30]
  inhibition at 1 µM: 17.2%
HT-1080 [31]
  inhibition at 30 µM: 54.6%
HT-1080 [32]
  inhibition at 10 µM: 98.3%
HT-1080 [33]
  inhibition at 3 µM: 96.9%

## COc1cc([C@H]2Oc3cc(O)ccc3C(=O)[C@@H]2O)ccc1O [ERYCIBENIN D]
U-937 [1]
  IC50: > 100 µM
U-937 [2]
  IC50: > 100 µM
U-937 [3]
  IC50: > 100 µM

## CC1(C)C=Cc2c(cc3occ(-c4ccc(O)cc4)c(=O)c3c2O)O1 [ALPINUMISOFLAVONE]
U-937 [1]
  IC50: 35 µM
U-937 [2]
  IC50: 32 µM
U-937 [3]
  IC50: 28 µM

## O=C1C=C2OC[C@H]3c4cc5c(cc4O[C@H]3[C@@]2(O)CC1)OCO5
U-937 [1]
  IC50: > 100 µM
U-937 [2]
  IC50: > 100 µM
U-937 [3]
  IC50: > 100 µM

## COc1cc2c(cc1OC)[C@@H]1COc3cc(O)ccc3[C@@H]1O2 [SECUNDIFLOROL I]
U-937 [1]
  IC50: > 100 µM
U-937 [2]
  IC50: > 100 µM
U-937 [3]
  IC50: > 100 µM

## CC(C)(O)[C@@H](O)Cc1c(O)cc2occ(-c3ccc(O)cc3)c(=O)c2c1O [ERYCIBENIN A]
U-937 [1]
  IC50: 46 µM
U-937 [2]
  IC50: 25 µM
U-937 [3]
  IC50: 21 µM

## CC(C)(O)[C@@H](O)Cc1c(O)cc(O)c2c(=O)c(-c3ccc(O)cc3)coc12 [ERYCIBENIN B]
U-937 [1]
  IC50: > 100 µM
U-937 [2]
  IC50: > 100 µM
U-937 [3]
  IC50: > 100 µM

## COc1cc(O)cc2c1C(=O)O[C@@H](C)CCCCCCC2 [LASIODIPLODIN]
U-937 [1]
  IC50: 36 µM
U-937 [2]
  IC50: 28 µM
U-937 [3]
  IC50: 20 µM

## COc1ccc2c(c1)OC[C@H]1c3cc4c(cc3O[C@@H]21)OCO4 [PTEROCARPIN]
U-937 [1]
  IC50: > 100 µM
U-937 [2]
  IC50: > 100 µM
U-937 [3]
  IC50: > 100 µM
